A melting point compilation (Tetko et al.; mined from patent text by program, amines drawn as free bases though some values may be those of a salt)

SMILES | melting point [°C]
CCc1cccc2c(=O)c3c(cnn3C)[nH]c12 | 254
CN(C)C(=S)C1(c2ccccn2)CCCS1 (centres undefined) | 100
CS(=O)c1ncc2n1-c1ccc(Cl)cc1C(c1ccccc1F)=NC2 (centres undefined) | 95 to 110
COc1ccc(C(=O)Nc2ccccc2S(C)(=O)=O)cc1OC1CCCC1 | 119 to 121
CN(C)c1cc(Cl)c(C=O)c(Cl)c1 | 169 to 171
CCc1nc(-c2ccccc2)[nH]c(=O)c1C | 195 to 199
CCc1cc(Br)cc2c1C(=O)C(=O)N2 | 229 to 230
CC(=O)OCc1ccccc1/C(=N\O)C(N)=O | 112 to 114

The next lines start with the values.

melting point [°C] | SMILES
129 to 131 | O=C(O)c1cn(-c2ccc(F)cc2)c(-c2ccc(N=Cc3ccc([N+](=O)[O-])o3)cc2)cc1=O
103 to 107 | CN1CCN(CCOc2ccc([C@H]3c4ccc(OCc5ccccc5)cc4OC[C@H]3c3ccccc3)cc2)CC1 (racemic)
89 to 91 | CCCc1c(COc2ccc(-c3nnn(CCCN(C)C)n3)cc2)ccc(C(C)=O)c1O
63 to 90 | COc1cc2c(cc1Nc1ncc(Cl)c(Nc3ccccc3C(=O)OC(C)C)n1)CCN(CCCN(C)C)C(=O)C2
86 to 87 | C=CCOc1ccc(C(=O)C=Cc2cc(OC)ccc2OC)cc1
195 to 196 | C(=C1CSCC2=C1N=C1SCCN1C2c1ccccc1)c1ccccc1 (centres undefined)
